We go through two molecules from patent US20090130121A1, “Synthetic Peptide Copolymers for Treatment and Prevention of Cardiovascular Disorders” (Yeda Research and Development Co., Ltd., priority 2005, published 2009).

Series [1] deals with apolipoprotein E-deficient mice. As to conditions: 12 week treatment; cited from earlier work.
Series [2] relates to apoE-/- mice. Nature of the series: Atherosclerotic lesion progression in the aortic sinus of apoE-/- mice. As to conditions: daily 8 weeks. In kind it is in vivo. On the procedure:
(§1) apoE-/- (backcrossed 10 times to C57BL/6J) mice were obtained from the Jackson Laboratory and were maintained under specific pathogen-free conditions and fed a normal chow diet. All experimental procedures were performed with approval from the Animal Care Committee of the Weizmann Institute of Science.
Eight-month-old apoE-/- mice (101 mice) were divided into 7 groups, […] (except day 0 group; n=11). Control group-time 0 (group 1) was sacrificed before treatment in order to measure the atherosclerotic lesion area prior to the treatments. Treatments were performed daily for a period of 8 weeks. Control group (group II) was orally administrated with PBS (0.2 ml). Control group III was injected subcutaneously (SC) with PBS (0.2 ml). […] Group VI was injected subcutaneously (SC) with GA in PBS (0.5 mg/0.2 ml). Group VII was injected subcutaneously (SC) with GA in PBS (2.0 mg/0.2 ml).
Histological evaluations of aortic fatty streak formation were performed according to the method of Paigen et al. with some modifications (Paigen et al., 1987. Atherosclerosis. 68:231-240). Briefly, the apical two thirds of the myocardium were removed and the basal part was snap-frozen in OCT (Sakura Tissue-Tek) using Isopentan cooled in liquid nitrogen. The frozen tissue blocks were placed on a cryostat, and 10-μm serial slices of the ascending aorta were collected on charge-coated Superfrost glass slides until it became possible to locate the most cranial portion of the aortic sinus by examining unstained slices. Once this slice was identified, 40 slices covering 400 μm of the ascending aorta were collected. Every second slice of the 40 collected was stained with oil red O (Riedel de Haen), counterstained with hematoxylin (Merck) stains and used for further evaluation. The fatty streak area stained with oil red O was objectively determined using a computer microscopy planimetry system (Nikon Micro & Macro system eclipse E800; Nikon digital camera DXM 1200 CCD; Nikon ×20/0.75 lens magnification) and Image-Pro Plus image analyses software for Windows XP. The total stained area (calculated for all 20 slices of each animal) was averaged per section for each animal. Thereafter, the area per slice was averaged for each group of animals and presented in μm^2.
Student's t-test was used for the comparison of the lesion progression in the aortic sinus of the treated and control groups of the apoE-/- mice.

The conditions of series [3]: several clinical trials; mostly mild reactions at the injection site; cited from earlier work.
Series [4] in a line: Body weight gain and plasma lipids in apoE-/- mice. The conditions noted are these: high and low doses, subcutaneously or orally, daily 8 weeks. Format: in vivo. On the procedure: as §1
(§2) Eight-month-old apoE-/- mice (101 mice) were divided into 7 groups, […] (except day 0 group; n=11). Control group-time 0 (group 1) was sacrificed before treatment in order to measure the atherosclerotic lesion area prior to the treatments. Treatments were performed daily for a period of 8 weeks. Control group (group II) was orally administrated with PBS (0.2 ml). Control group III was injected subcutaneously (SC) with PBS (0.2 ml). Group IV was orally treated with GA in PBS (5.0 μg/0.2 ml); Groups V was orally treated with GA in PBS (250 μg/0.2 ml). Group VI was injected subcutaneously (SC) with GA in PBS (0.5 mg/0.2 ml). Group VII was injected subcutaneously (SC) with GA in PBS (2.0 mg/0.2 ml).
The whole blood samples were centrifuged for plasma separation and the plasma samples of each group were pooled. Total Plasma cholesterol as well as low and high density lipoprotein cholesterol (LDL and HDL, respectively) concentrations were measured in each group using Konelab 30i autoanalyser (Kone Instruments, Espoo, Finland).

For series [5], the system named is C57BL/J6 mice maintained on an atherogenic diet. Nature of the series: Atherosclerotic fatty streak area (oil red O) in aorta of C57BL/J6 mice on atherogenic diet. In kind it is in vivo. An excerpt: Fourteen-month-old male C57BL/J6 mice (Harlan) with an average body weight of 19 g were randomly divided into three groups (five animals in each group). The groups entered a two-week acclimatization period. Groups A, which served as positive control and B, which served as the treated group, received a high fat atherogenic diet containing 1.25 % cholesterol, 0.5% sodium cholate and 15% fat (Harlan Laboratories, Teklad Premier Laboratory Diets, Madison, Wis., USA TD 88051). Group C served as negative control and was maintained on a normal mouse chow (Altromin, Standard Diet). The chow was supplied considering that the average intake of food for each animal is about 5 g/day (Walker et al., 1999, Arterioscler Thromb Vasc Biol. 19, 2673-2679). Replenishment of food and autoclaved water was performed every other day. All the animals were weighed weekly during the study. The mice were maintained on a 12-hour light/dark cycle in ventilated cages and temperature-controlled environment, in accordance with the standard animal care requirements of the Weizmann Institute of Science. […]
Histological evaluations of aortic fatty streak formation were performed according to the method of Paigen et al. with some modifications (Paigen et al., 1987. Atherosclerosis. 68:231-240). […] The fatty streak area stained with oil red O was objectively determined using a computer microscopy planimetry system (Nikon Micro & Macro system eclipse E800; Nikon digital camera DXM 1200 CCD; Nikon ×20/0.75 lens magnification) and Image-Pro Plus image analyses software for Windows XP. The total stained area (calculated for all 20 slices of each animal) was averaged per section for each animal. […]
(§3) ANOVA single factor test was used for the comparison of the body weights of the C57BL/J6 mice. Since no fatty streaks were detected in the negative control group of the C57BL/J6 mice (Group C), only two groups (A and B) participated in the statistical analysis of the results obtained in the quantization of aortic fatty streak area. The C57BL/J6 data were analyzed using Student's t-test: two samples assuming unequal variance. […]

Series [6] relates to apoE-/- mice. As to the kind of experiment: Aortic atherosclerotic lesion area in apoE-/- mice. In kind it is in vivo. On the procedure: as §1, §2
Aortic atherosclerotic areas were measured in control and treated mice of the following groups: I (time 0); III (S.C. PBS); V (Oral GA, 250 μg); and VII (S.C. GA, 2.0 mg).

The nature of series [7]: Survival and body weight of C57BL/J6 mice on atherogenic diet, daily SC treatment. Format: in vivo. As to conditions: Group B, GA 0.5 mg/0.2 ml SC daily.
Source text: Fourteen-month-old male C57BL/J6 mice (Harlan) with an average body weight of 19 g were randomly divided into three groups (five animals in each group). The groups entered a two-week acclimatization period. Groups A, which served as positive control and B, which served as the treated group, received a high fat atherogenic diet containing 1.25 % cholesterol, 0.5% sodium cholate and 15% fat (Harlan Laboratories, Teklad Premier Laboratory Diets, Madison, Wis., USA TD 88051). Group C served as negative control and was maintained on a normal mouse chow (Altromin, Standard Diet). The chow was supplied considering that the average intake of food for each animal is about 5 g/day (Walker et al., 1999, Arterioscler Thromb Vasc Biol. 19, 2673-2679). Replenishment of food and autoclaved water was performed every other day. All the animals were weighed weekly during the study. The mice were maintained on a 12-hour light/dark cycle in ventilated cages and temperature-controlled environment, in accordance with the standard animal care requirements of the Weizmann Institute of Science.
Following acclimatization, the animals in groups A (positive control) and C (negative control) received 0.2 ml of PBS injected daily subcutaneously (SC). The animals in group B (treated) received SC daily injections of glatiramer acetate (GA) (COPAXONE®, Teva Pharmaceutical Industries Ltd) in PBS (0.5 mg/0.2 ml). After 8 weeks all the mice were bled retro-orbitally and humanely sacrificed by cervical dislocation. The hearts and ascending aorta were removed from the animals, rinsed with Dulbecco's PBS (Life Technologies) and used for the evaluation of fatty streak formation.
as §3

For `CC(=O)CCCCn1c(=O)c2c(ncn2C)n(C)c1=O` [PTX, pentoxifylline], in series [1], the “decrease in the size of atherosclerotic lesions” value was 60%.

With glatiramer acetate [GA], the entries for the “inhibition of the progression of lesion area in the aortic sinus with respect to control” value with apoE-/- mice [2] (high dose S.C. (2.0 mg)) and in the series on apoE-/- mice [2] (high dose orally (250 μg)) were 44.4% and 37.7%, respectively. For the same molecule, the “effect on lesion progression in the aortic sinus” value in the series on apoE-/- mice [2] (low dose S.C. (500 μg)) and in the series with apoE-/- mice [2] (low dose orally (50 μg)) was “did not effect” each time. The “tolerability in clinical trials” value in series [3] was “well tolerated with only minor side reactions”. Also, the “effect on body weight gain” value in series [4] is “did not affect”. For the same molecule, in series [5] (Group B, GA 0.5 mg SC daily 8 weeks, animals that reached the end of the study), the “animals with no fatty streaks in the analysed aortic section (20 slices)” value is recorded as “two out of four”. Moreover, the “reduction in the fatty streak area compared to the untreated mice” value in series [5] (calculated for all four mice in Group B) is reported as 4 fold. Further, the “average area stained with oil red O relative to positive control Group A” value in series [5] (the two GA-treated mice that had fatty streaks, p=0.014) came to 40%. Moreover, the “change in aortic lesion area compared to time 0” value in the series with apoE-/- mice [6] (Oral GA 250 μg, group V, P<0.05) is “significance increase”. Besides, in the series on apoE-/- mice [6] (high dose 2.0 mg S.C., group VII, t-test P=0.009), the “inhibition of aortic lesion area progression compared to control group III” value is reported as 52%. In addition, in series [7] (atherogenic diet), the “average body weight ten weeks following the initiation of the study” value came out at 24.20 ± 0.94 g. Moreover, the “weight gained during the 10 weeks of the study” value in series [7] (atherogenic diet) was determined as 5.24 ± 1.40 g. Besides, in series [7] (one animal found dead five weeks into the study), the “animals that reached the end of the study” value was “Four out of five”.
